{"source": "patent US20020128311A1", "about": "“Halocyanoacetamide antimicrobial compositions” (priority 2000, published 2002)", "type_in_all_cases": "physicochemical", "key": {"[1]": {"test": "Stability of DBNPA in various solvents, stored at 60° C., HPLC", "conditions": "for % DBNPA retained: 2.0 g DBNPA + 8.0 g solvent"}, "[2]": {"test": "Stability of CMIT and DBNPA mixtures in GTA, stored at 50° C., HPLC", "conditions": "[…]% CMIT/MIT mixture", "protocol": "Surfactants were TweenTM 20, TritonTM DF-12 or TritonTM CF-10. The compositions were stored at 50° C. for 4 weeks and the concentrations of active ingredients ([…]) in the compositions were determined by HPLC at the indicated time intervals."}, "[3]": {"test": "Stability of DCOIT and DBNPA mixtures in GTA, stored at 40° C., HPLC", "conditions": "4% DCOIT", "protocol": "[…] […] Surfactants were TweenTM 20, TritonTM DF-12 or TritonTM CF-10. These compositions were stored at 40° C. for 6 weeks and the concentrations of active ingredients ([…]) in the compositions were determined by HPLC at the indicated time intervals."}, "[4]": {"test": "Freeze/thaw stability of DCOIT/DBNPA/surfactant/GTA compositions, HPLC", "conditions": "for % DBNPA retained after Freezing and Thawing: thawed at 25° C. 5 hours, three times", "protocol": "Samples were prepared to test the freeze/thaw stability of compositions of the present invention. The freeze/thaw test was conducted for compositions of […], surfactant and GTA prepared in Example 4. Samples (20 g each) were stored at -10° C. or -25° C. for 19 hours to be frozen; samples were then stored at 25° C. for 5 hours to be thawed. This sequence was repeated three times. Then the concentrations of active ingredients ([…]) in the compositions were determined by HPLC."}}}
{"smiles": "N#CC(Br)(Br)C(N)=O", "note": "[DBNPA, 2,2-dibromo-3-nitrilopropionamide]", "values": [{"measurement": "% retained", "setting": "[1]; after 4 weeks in glycol, amide, ether and ketone solvents", "result": "less than 50%"}, {"measurement": "% DBNPA retained", "setting": "[1]; solvent 62% dipropylene glycol in water (comparative), 1 week", "result": 95, "unit": "%"}, {"measurement": "% DBNPA retained", "setting": "[1]; solvent 62% dipropylene glycol in water (comparative), 4 weeks", "result": 20, "unit": "%"}, {"measurement": "% DBNPA retained", "setting": "[1]; solvent 75% dipropylene glycol in water (comparative), 1 week", "result": 79, "unit": "%"}, {"measurement": "% DBNPA retained", "setting": "[1]; solvent 86% dipropylene glycol in water (comparative), 1 week", "result": 49, "unit": "%"}, {"measurement": "% DBNPA retained", "setting": "[1]; solvent GTA, 1 week", "result": 92, "unit": "%"}, {"measurement": "% DBNPA retained", "setting": "[1]; solvent GTA, 2 weeks", "result": 100, "unit": "%"}, {"measurement": "% DBNPA retained", "setting": "[1]; solvent GTA, 3 weeks", "result": 100, "unit": "%"}, {"measurement": "% DBNPA retained", "setting": "[1]; solvent GTA, 4 weeks", "result": 100, "unit": "%"}, {"measurement": "% DBNPA retained", "setting": "[1]; solvent PGMEA (comparative), 1 week", "result": 80, "unit": "%"}, {"measurement": "% DBNPA retained", "setting": "[1]; solvent PGMEA (comparative), 2 weeks", "result": 65, "unit": "%"}, {"measurement": "% DBNPA retained", "setting": "[1]; solvent PGMEA (comparative), 3 weeks", "result": 61, "unit": "%"}, {"measurement": "% DBNPA retained", "setting": "[1]; solvent PGMEA (comparative), 4 weeks", "result": 45, "unit": "%"}, {"measurement": "% DBNPA retained", "setting": "[1]; solvent diethyl phthalate, 1 week", "result": 100, "unit": "%"}, {"measurement": "% DBNPA retained", "setting": "[1]; solvent diethyl phthalate, 2 weeks", "result": 98, "unit": "%"}, {"measurement": "% DBNPA retained", "setting": "[1]; solvent diethyl phthalate, 3 weeks", "result": 98, "unit": "%"}, {"measurement": "% DBNPA retained", "setting": "[1]; solvent diethyl phthalate, 4 weeks", "result": 98, "unit": "%"}, {"measurement": "% DBNPA retained", "setting": "[1]; solvent dimethyl formamide (comparative), 1 week", "result": 73, "unit": "%"}, {"measurement": "% DBNPA retained", "setting": "[1]; solvent dimethyl formamide (comparative), 2 weeks", "result": 46, "unit": "%"}, {"measurement": "% DBNPA retained", "setting": "[1]; solvent ethyl acetate, 1 week", "result": 100, "unit": "%"}, {"measurement": "% DBNPA retained", "setting": "[1]; solvent ethyl acetate, 2 weeks", "result": 100, "unit": "%"}, {"measurement": "% DBNPA retained", "setting": "[1]; solvent ethyl acetate, 3 weeks", "result": 100, "unit": "%"}, {"measurement": "% DBNPA retained", "setting": "[1]; solvent ethyl acetate, 4 weeks", "result": 100, "unit": "%"}, {"measurement": "% DBNPA retained", "setting": "[1]; solvent methyl amyl ketone (comparative), 1 week", "result": 9, "unit": "%"}, {"measurement": "% DBNPA retained", "setting": "[1]; solvent methyl amyl ketone (comparative), 2 weeks", "result": 12, "unit": "%"}, {"measurement": "% DBNPA retained", "setting": "[1]; solvent methyl amyl ketone (comparative), 3 weeks", "result": 0, "unit": "%"}, {"measurement": "% DBNPA retained", "setting": "[1]; solvent octyl pyrrolidone (comparative), 1 week", "result": 62, "unit": "%"}, {"measurement": "% DBNPA retained", "setting": "[1]; solvent octyl pyrrolidone (comparative), 2 weeks", "result": 50, "unit": "%"}, {"measurement": "% DBNPA retained", "setting": "[1]; solvent octyl pyrrolidone (comparative), 3 weeks", "result": 45, "unit": "%"}, {"measurement": "% DBNPA retained", "setting": "[1]; solvent triethylene glycol dimethyl ether (comparative), 1 week", "result": 15, "unit": "%"}, {"measurement": "% DBNPA retained", "setting": "[1]; solvent triethylene glycol dimethyl ether (comparative), 2 weeks", "result": 0, "unit": "%"}, {"measurement": "% DBNPA retained", "setting": "[2]; 5% Triton CF-10, 45% GTA, 0 Time", "result": 100, "unit": "%"}, {"measurement": "% DBNPA retained", "setting": "[2]; 5% Triton CF-10, 45% GTA, 1 Week", "result": 97, "unit": "%"}, {"measurement": "% DBNPA retained", "setting": "[2]; 5% Triton CF-10, 45% GTA, 2 Weeks", "result": 93, "unit": "%"}, {"measurement": "% DBNPA retained", "setting": "[2]; 5% Triton CF-10, 45% GTA, 3 Weeks", "result": 77, "unit": "%"}, {"measurement": "% DBNPA retained", "setting": "[2]; 5% Triton CF-10, 45% GTA, 4 Weeks", "result": 69, "unit": "%"}, {"measurement": "% DBNPA retained", "setting": "[2]; 5% Triton DF-12, 45% GTA, 0 Time", "result": 100, "unit": "%"}, {"measurement": "% DBNPA retained", "setting": "[2]; 5% Triton DF-12, 45% GTA, 1 Week", "result": 98, "unit": "%"}, {"measurement": "% DBNPA retained", "setting": "[2]; 5% Triton DF-12, 45% GTA, 2 Weeks", "result": 95, "unit": "%"}, {"measurement": "% DBNPA retained", "setting": "[2]; 5% Triton DF-12, 45% GTA, 3 Weeks", "result": 73, "unit": "%"}, {"measurement": "% DBNPA retained", "setting": "[2]; 5% Triton DF-12, 45% GTA, 4 Weeks", "result": 68, "unit": "%"}, {"measurement": "% DBNPA retained", "setting": "[2]; 5% Tween 20, 45% GTA, 0 Time", "result": 100, "unit": "%"}, {"measurement": "% DBNPA retained", "setting": "[2]; 5% Tween 20, 45% GTA, 1 Week", "result": 97, "unit": "%"}, {"measurement": "% DBNPA retained", "setting": "[2]; 5% Tween 20, 45% GTA, 2 Weeks", "result": 71, "unit": "%"}, {"measurement": "% DBNPA retained", "setting": "[2]; 5% Tween 20, 45% GTA, 3 Weeks", "result": 61, "unit": "%"}, {"measurement": "% DBNPA retained", "setting": "[2]; 5% Tween 20, 45% GTA, 4 Weeks", "result": 54, "unit": "%"}, {"measurement": "% DBNPA retained", "setting": "[2]; no surfactant, 50% GTA, 0 Time", "result": 100, "unit": "%"}, {"measurement": "% DBNPA retained", "setting": "[2]; no surfactant, 50% GTA, 1 Week", "result": 98, "unit": "%"}, {"measurement": "% DBNPA retained", "setting": "[2]; no surfactant, 50% GTA, 2 Weeks", "result": 90, "unit": "%"}, {"measurement": "% DBNPA retained", "setting": "[2]; no surfactant, 50% GTA, 3 Weeks", "result": 85, "unit": "%"}, {"measurement": "% DBNPA retained", "setting": "[2]; no surfactant, 50% GTA, 4 Weeks", "result": 78, "unit": "%"}, {"measurement": "% DBNPA retained", "setting": "[3]; 5% Triton CF-10, 66% GTA, 4 Weeks", "result": 93.5, "unit": "%"}, {"measurement": "% DBNPA retained", "setting": "[3]; 5% Triton CF-10, 66% GTA, 6 Weeks", "result": 91.2, "unit": "%"}, {"measurement": "% DBNPA retained", "setting": "[3]; 5% Triton CF-10, 66% GTA, Time 0", "result": 100.0, "unit": "%"}, {"measurement": "% DBNPA retained", "setting": "[3]; 5% Triton DF-12, 66% GTA, 4 Weeks", "result": 92.3, "unit": "%"}, {"measurement": "% DBNPA retained", "setting": "[3]; 5% Triton DF-12, 66% GTA, 6 Weeks", "result": 92.0, "unit": "%"}, {"measurement": "% DBNPA retained", "setting": "[3]; 5% Triton DF-12, 66% GTA, Time 0", "result": 100.0, "unit": "%"}, {"measurement": "% DBNPA retained", "setting": "[3]; 5% Tween 20, 66% GTA, 4 Weeks", "result": 93.3, "unit": "%"}, {"measurement": "% DBNPA retained", "setting": "[3]; 5% Tween 20, 66% GTA, 6 Weeks", "result": 92.1, "unit": "%"}, {"measurement": "% DBNPA retained", "setting": "[3]; 5% Tween 20, 66% GTA, Time 0", "result": 100.0, "unit": "%"}, {"measurement": "% DBNPA retained after Freezing and Thawing", "setting": "[4]; Example 4 composition with Triton CF-10, frozen at −10° C. 19 hours", "result": 98.8, "unit": "%"}, {"measurement": "% DBNPA retained after Freezing and Thawing", "setting": "[4]; Example 4 composition with Triton CF-10, frozen at −25° C. 19 hours", "result": 98.8, "unit": "%"}, {"measurement": "% DBNPA retained after Freezing and Thawing", "setting": "[4]; Example 4 composition with Triton DF-12, frozen at −10° C. 19 hours", "result": 98.8, "unit": "%"}, {"measurement": "% DBNPA retained after Freezing and Thawing", "setting": "[4]; Example 4 composition with Triton DF-12, frozen at −25° C. 19 hours", "result": 99, "unit": "%"}, {"measurement": "% DBNPA retained after Freezing and Thawing", "setting": "[4]; Example 4 composition with Tween 20, frozen at −10° C. 19 hours", "result": 99.2, "unit": "%"}, {"measurement": "% DBNPA retained after Freezing and Thawing", "setting": "[4]; Example 4 composition with Tween 20, frozen at −25° C. 19 hours", "result": 99.1, "unit": "%"}, {"measurement": "physical stability (appearance) during freeze/thaw cycling", "setting": "[4]; in GTA solutions in the presence of surfactants", "result": "clear solution, no precipitation or phase separation observed"}]}
